Measured values published in PubChem BioAssay AID1963832 (Molecular Pharmacology Branch, DTP, NCI, 2024).

System: 885724-159-R-J1-PDC complex spheroid viability
Assay: Anticancer human tumor 885724-159-R-J1-PDC patient-derived pancreatic adenocarcinoma cell line growth inhibition [POLQ]
Settings: for IC50: curve of first compound; for viability, T/C: stronger effect = lower value
In short: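 Three-cell-type spheroids modelling solid tumor plus stroma served as the readout system; POL inhibitors were tested individually and in combination, concentration ranges set by clinical Cmax where known.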

[1] = second compound 0.0316 µM, first compound 0.0316 µM
[2] = second compound 0.0316 µM, first compound 0.1 µM
[3] = second compound 0.0316 µM, first compound 0.316 µM
[4] = second compound 0.0316 µM, first compound 1 µM
[5] = second compound 0.0316 µM, first compound 3.16 µM
[6] = second compound 0.0316 µM, first compound 10 µM
[7] = second compound 0.1 µM, first compound 0.0316 µM
[8] = second compound 0.1 µM, first compound 0.1 µM
[9] = second compound 0.1 µM, first compound 0.316 µM
[10] = second compound 0.1 µM, first compound 1 µM
[11] = second compound 0.1 µM, first compound 3.16 µM
[12] = second compound 0.1 µM, first compound 10 µM
[13] = second compound 0.316 µM, first compound 0.0316 µM
[14] = second compound 0.316 µM, first compound 0.1 µM
[15] = second compound 0.316 µM, first compound 0.316 µM
[16] = second compound 0.316 µM, first compound 1 µM
[17] = second compound 0.316 µM, first compound 3.16 µM
[18] = second compound 0.316 µM, first compound 10 µM
[19] = second compound 1 µM, first compound 0.0316 µM
[20] = second compound 1 µM, first compound 0.1 µM
[21] = second compound 1 µM, first compound 0.316 µM
[22] = second compound 1 µM, first compound 1 µM
[23] = second compound 1 µM, first compound 3.16 µM
[24] = second compound 1 µM, first compound 10 µM
[25] = second compound 3.16 µM, first compound 0.0316 µM
[26] = second compound 3.16 µM, first compound 0.1 µM
[27] = second compound 3.16 µM, first compound 0.316 µM
[28] = second compound 3.16 µM, first compound 1 µM
[29] = second compound 3.16 µM, first compound 3.16 µM
[30] = second compound 3.16 µM, first compound 10 µM
[31] = second compound 10 µM, first compound 0.0316 µM
[32] = second compound 10 µM, first compound 0.1 µM
[33] = second compound 10 µM, first compound 0.316 µM
[34] = second compound 10 µM, first compound 1 µM
[35] = second compound 10 µM, first compound 3.16 µM
[36] = second compound 10 µM, first compound 10 µM
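Note: spheroids exposed to compounds for 7 days.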

C=CC(=O)N1CCN(c2nc(=O)n(-c3c(C)ccnc3C(C)C)c3nc(-c4c(O)cccc4F)c(F)cc23)C(C)C1 (stereo not given) + Nc1ccc(C#CCN(C(=O)Cc2ncc(C(F)(F)F)cc2C(F)(F)F)c2ccc(F)cc2)nn1
IC50 (second compound 0.0316 µM): > 10 µM | IC50 (second compound 0.1 µM): > 10 µM | IC50 (second compound 0.316 µM): > 10 µM | IC50 (second compound 1 µM): > 10 µM | IC50 (second compound 3.16 µM): > 10 µM | IC50 (second compound 10 µM): > 10 µM | viability, T/C [1]: 96.3% | viability, T/C [2]: 86% | viability, T/C [3]: 101% | viability, T/C [4]: 106% | viability, T/C [5]: 103% | viability, T/C [6]: 98.6% | viability, T/C [7]: 108% | viability, T/C [8]: 112% | viability, T/C [9]: 110% | viability, T/C [10]: 102% | viability, T/C [11]: 122% | viability, T/C [12]: 94% | viability, T/C [13]: 96.5% | viability, T/C [14]: 102% | viability, T/C [15]: 105% | viability, T/C [16]: 102% | viability, T/C [17]: 110% | viability, T/C [18]: 90.4% | viability, T/C [19]: 96.4% | viability, T/C [20]: 87.5% | viability, T/C [21]: 93.2% | viability, T/C [22]: 109% | viability, T/C [23]: 110% | viability, T/C [24]: 97.3% | viability, T/C [25]: 96.9% | viability, T/C [26]: 92.9% | viability, T/C [27]: 98.4% | viability, T/C [28]: 100% | viability, T/C [29]: 117% | viability, T/C [30]: 83.6% | viability, T/C [31]: 95.7% | viability, T/C [32]: 104% | viability, T/C [33]: 98.6% | viability, T/C [34]: 111% | viability, T/C [35]: 97.5% | viability, T/C [36]: 91.1%

CC1COCCN1c1cc(-c2ccnn2C)c2ccnc(-c3ccn[nH]3)c2n1 (stereo not given) + Nc1ccc(C#CCN(C(=O)Cc2ncc(C(F)(F)F)cc2C(F)(F)F)c2ccc(F)cc2)nn1
IC50 (second compound 0.0316 µM): 0.298 µM | IC50 (second compound 0.1 µM): 0.275 µM | IC50 (second compound 0.316 µM): 0.267 µM | IC50 (second compound 1 µM): 0.178 µM | IC50 (second compound 3.16 µM): 0.275 µM | IC50 (second compound 10 µM): 0.458 µM | viability, T/C [1]: 95.7% | viability, T/C [2]: 60.6% | viability, T/C [3]: 51% | viability, T/C [4]: 43.9% | viability, T/C [5]: 47.7% | viability, T/C [6]: 44.4% | viability, T/C [7]: 108% | viability, T/C [8]: 60.8% | viability, T/C [9]: 49.6% | viability, T/C [10]: 48.1% | viability, T/C [11]: 42.7% | viability, T/C [12]: 39.5% | viability, T/C [13]: 96.1% | viability, T/C [14]: 58.4% | viability, T/C [15]: 49.7% | viability, T/C [16]: 47.5% | viability, T/C [17]: 46.4% | viability, T/C [18]: 39.1% | viability, T/C [19]: 90% | viability, T/C [20]: 52.3% | viability, T/C [21]: 49% | viability, T/C [22]: 47.5% | viability, T/C [23]: 49.9% | viability, T/C [24]: 38.4% | viability, T/C [25]: 95.9% | viability, T/C [26]: 61.5% | viability, T/C [27]: 48.4% | viability, T/C [28]: 45.2% | viability, T/C [29]: 43.4% | viability, T/C [30]: 43.8% | viability, T/C [31]: 106% | viability, T/C [32]: 64% | viability, T/C [33]: 52.4% | viability, T/C [34]: 49.3% | viability, T/C [35]: 46.6% | viability, T/C [36]: 42.5%

CC1COCCN1c1cc(C2(S(C)(=N)=O)CC2)nc(-c2ccnc3[nH]ccc23)n1 (stereo not given) + Nc1ccc(C#CCN(C(=O)Cc2ncc(C(F)(F)F)cc2C(F)(F)F)c2ccc(F)cc2)nn1
IC50 (second compound 0.0316 µM): > 10 µM | IC50 (second compound 0.1 µM): 7.07 µM | IC50 (second compound 0.316 µM): > 10 µM | IC50 (second compound 1 µM): 6.07 µM | IC50 (second compound 3.16 µM): 8 µM | IC50 (second compound 10 µM): > 10 µM | viability, T/C [1]: 87.3% | viability, T/C [2]: 89.6% | viability, T/C [3]: 90.4% | viability, T/C [4]: 75.9% | viability, T/C [5]: 55.7% | viability, T/C [6]: 50% | viability, T/C [7]: 104% | viability, T/C [8]: 94.5% | viability, T/C [9]: 94% | viability, T/C [10]: 71.5% | viability, T/C [11]: 57.8% | viability, T/C [12]: 46.7% | viability, T/C [13]: 95.3% | viability, T/C [14]: 97.2% | viability, T/C [15]: 83.4% | viability, T/C [16]: 63.4% | viability, T/C [17]: 55.5% | viability, T/C [18]: 53.2% | viability, T/C [19]: 95.3% | viability, T/C [20]: 85.1% | viability, T/C [21]: 87.8% | viability, T/C [22]: 75.9% | viability, T/C [23]: 55.8% | viability, T/C [24]: 45.4% | viability, T/C [25]: 94.3% | viability, T/C [26]: 88.6% | viability, T/C [27]: 91.1% | viability, T/C [28]: 69.9% | viability, T/C [29]: 53.5% | viability, T/C [30]: 48.4% | viability, T/C [31]: 95.6% | viability, T/C [32]: 99.7% | viability, T/C [33]: 94.7% | viability, T/C [34]: 64.1% | viability, T/C [35]: 57.8% | viability, T/C [36]: 47%

CCc1cc2c(N3CCc4c(cc(Cn5ccnc5)cc4-c4cn(C)nc4C(F)(F)F)C3=O)cc(C)nc2c(OC)n1 + Nc1ccc(C#CCN(C(=O)Cc2ncc(C(F)(F)F)cc2C(F)(F)F)c2ccc(F)cc2)nn1
IC50 (second compound 0.0316 µM): > 10 µM | IC50 (second compound 0.1 µM): > 10 µM | IC50 (second compound 0.316 µM): > 10 µM | IC50 (second compound 1 µM): > 10 µM | IC50 (second compound 3.16 µM): > 10 µM | IC50 (second compound 10 µM): > 10 µM | viability, T/C [1]: 84.1% | viability, T/C [2]: 82.4% | viability, T/C [3]: 79.4% | viability, T/C [4]: 79.3% | viability, T/C [5]: 75.8% | viability, T/C [6]: 69.2% | viability, T/C [7]: 91.8% | viability, T/C [8]: 87.3% | viability, T/C [9]: 75.8% | viability, T/C [10]: 77.1% | viability, T/C [11]: 70.9% | viability, T/C [12]: 60.3% | viability, T/C [13]: 86.7% | viability, T/C [14]: 84.8% | viability, T/C [15]: 82.2% | viability, T/C [16]: 85.2% | viability, T/C [17]: 69.5% | viability, T/C [18]: 69.7% | viability, T/C [19]: 89% | viability, T/C [20]: 90.9% | viability, T/C [21]: 78.3% | viability, T/C [22]: 71.8% | viability, T/C [23]: 73.1% | viability, T/C [24]: 67.2% | viability, T/C [25]: 79.3% | viability, T/C [26]: 72% | viability, T/C [27]: 78.3% | viability, T/C [28]: 85.4% | viability, T/C [29]: 75.2% | viability, T/C [30]: 69.8% | viability, T/C [31]: 88% | viability, T/C [32]: 88% | viability, T/C [33]: 85.2% | viability, T/C [34]: 76.8% | viability, T/C [35]: 89.9% | viability, T/C [36]: 73%

COc1ccc([C@@H](O)c2cc(-c3ncnc4cc(N5CCOCC5)ccc34)c(F)cc2Cl)nn1 + Nc1ccc(C#CCN(C(=O)Cc2ncc(C(F)(F)F)cc2C(F)(F)F)c2ccc(F)cc2)nn1
IC50 (second compound 0.0316 µM): 3.7 µM | IC50 (second compound 0.1 µM): 3.83 µM | IC50 (second compound 0.316 µM): 4.24 µM | IC50 (second compound 1 µM): 4.29 µM | IC50 (second compound 3.16 µM): 3.94 µM | IC50 (second compound 10 µM): 4.85 µM | viability, T/C [1]: 83.2% | viability, T/C [2]: 105% | viability, T/C [3]: 73.6% | viability, T/C [4]: 74.9% | viability, T/C [5]: 52.3% | viability, T/C [6]: 33.1% | viability, T/C [7]: 100% | viability, T/C [8]: 89.6% | viability, T/C [9]: 84.4% | viability, T/C [10]: 75.1% | viability, T/C [11]: 51% | viability, T/C [12]: 32.9% | viability, T/C [13]: 98.7% | viability, T/C [14]: 103% | viability, T/C [15]: 86% | viability, T/C [16]: 73% | viability, T/C [17]: 57.5% | viability, T/C [18]: 32.8% | viability, T/C [19]: 92.8% | viability, T/C [20]: 86.3% | viability, T/C [21]: 81.5% | viability, T/C [22]: 69.5% | viability, T/C [23]: 57.5% | viability, T/C [24]: 33.3% | viability, T/C [25]: 91.5% | viability, T/C [26]: 93.9% | viability, T/C [27]: 82.9% | viability, T/C [28]: 67.8% | viability, T/C [29]: 56% | viability, T/C [30]: 33.5% | viability, T/C [31]: 96.7% | viability, T/C [32]: 89.4% | viability, T/C [33]: 87.4% | viability, T/C [34]: 70.6% | viability, T/C [35]: 59.1% | viability, T/C [36]: 36.6%
